The record followed here is patent US11685741B2, “Fluorescent probes” (University of Massachusetts, priority 2017, dated 2023).

Several values for one entry are separate records, joined by “and”; a condition that tells them apart may be missing. Equal values may be shown once.

The test system of data set [1] is primary human fibroblast cells (ws1). Kind of data set: Confocal imaging of Fe2+ with Rh6GD in ws1 cells. The data set is classed as cell-based. The procedure:
Human primary fibroblast ws1 cells were grown at 37° C. in a humid atmosphere of 5% CO2 atmosphere in eagle's minimum essential medium (EMEM, ATCC) supplemented with 10% fetal bovine serum (FBS, ATCC). Cultures were divided into 1:2 every 48 h to an approximate cell density of 1.21 million cells/ml and used for experiments after 24 h.
A Zeiss LSM 710 laser-scanning confocal microscope system was used for cell imaging experiments. 40× oil-immersion objective lens were used to perform all the experiments. For imaging with the Rh6GD sensor, excitation wavelength of the laser was 543 nm and emissions were collected over the range 545-625 nm. For images with MitoTracker Green FM, LysoTracker Deep Red, excitation wavelengths recommended by the manufacturer were 488 nm for MitoTracker, 633 nm for LysoTracker. Emissions were integrated at 492-535 nm (MitoTracker), 650-800 nm (LysoTracker), respectively.
Ws1 cells, at an approximately density of 1.2 million/ml in complete EMEM medium, were incubated with 100 μM ferrous ammonium sulfate (FAS, Fe (NH4)2(SO4)2 from a 10 mM stock solution) for overnight at 37° C. in a humid atmosphere of 5% CO2 and then the cells were washed with fresh EMEM medium to remove excess Fe^2+. Then cells were incubated with Rh6GD (10 μM, from 500 μM stock solution in DMF) at 37° C. for 30 min and then cells were washed with EMEM media and then imaged. In addition, some cells were treated firstly with 100 μM Fe^2+ overnight and then the cells were washed with fresh EMEM medium. For chelation experiments, Fe^2+-loaded cells or untreated cells were incubated with 1 mM 2,2′-bipyridyl (Bpy) at 37° C. for 30 min, then sensor was added followed by washing with the media, and then imaging was done. Controls were imaged without incubation with Fe^2+ or 2,2′-bipyridyl.
The ability of Rh6GD to detect Fe^2+ in primary human fibroblast cells (ws1) was investigated by using confocal microscopy. […] For Fe^2+ repleting conditions, live ws1 cells were incubated with 100 μM of ferrous ammonium sulfate (Fe (NH4)2(SO4)2) at 37° C. for overnight followed by washing with EMEM medium to remove excess Fe^2+ and then 10 μM of Rh6GD was added to the culture media and was incubated at 37° C. for 30 min. […] This fluorescent intensity is almost the same as that of cells without Fe^2+ or Bpy treatment (FIG. 34B).
To explore this, the distribution of exchangeable Fe^2+ pools in live ws1 cells were further investigated using Rh6GD, together with colocalization experiments using other dyes such as MitoTracker Green FM (a green fluorescent dye which localizes to mitochondria in live cells regardless of mitochondrial membrane potential) and LysoTracker Deep Red (a fluorescent dye that stains acidic compartments such as endosomes and lysosomes in live cells). […]

Data set [2] can be described thus: Metal ion sensing: UV-vis and fluorescence response to Fe3+ and other metal ions. As for the experimental part:
The spectroscopic properties of Rh-PK and its interactions with various metal ions were evaluated in acetonitrile (ACN)/Tris-HCl buffer (10 mM, pH 7.3, v/v, 3:1). […] The changes in UV-Vis spectra after the addition of various ions are shown in FIG. 2, which is an absorbance spectrum of 100 μM sensor with various metal ions (100 μM for Ni^+2, Cu^+, Cu^+2, Zn^+2, Pb, Fe^+2, Fe^+3, Cr^+3, Hg^+2, Mn^+2, Ag^+, and Co^+2; 200 μM for K^+, Na^+, Ca^2+ and Mg^2+) in the ACN/Tris buffer (10 mM, pH 7.3, v/v 3:1).
When Fe^3+ was added into the solution of Rh-PK, a significant enhancement of fluorescence (>12-fold with 1.0 equiv of Fe^3+) was observed.
The interferences from the other metal ions with Rh-PK in its response to Fe^3+ was examined. […] Each of the 12 metal ions was pre-incubated with Rh-PK before 1 equiv. of Fe^3+ was added, the fluorescence response was then measured.
The stock solution of sensor and metal ions were prepared at the concentration of 1 mM. M. P. Walkees, Mutat. Res., 2003, 533, 107; M. Waisberg, et al., Toxicology, 2003, 192, 95.
The UV-vis. and fluorescence spectra of RhHPA to various possible interfering metal ions and its selectivity for Fe^3+ were examined. See FIG. 6, which is a plot of absorbance dependent on the concentration of Fe^3+ in the range from 0 to 2 equivalents in ACN/Tris-HCl buffer (10 mM, pH 7.3, v/v 2:1); FIG. 7, which is a Job's plot between Fe^3+ and RhHPA, indicating the 1:1 binding mode for sensor and iron(III). […] Addition of Na^+, K^+, Ca^2+, Mg^2+, Cr^3+, […], Hg^2+, Cu^2+, Pb^2+, Zn^2+, Fe^2+, Co^2+, Ni^2+, and Ag^+ exerted little or no effect on the emission of RhHPA, while remarkable fluorescence enhancement was detected upon the addition of Fe^3+ by excitation of the rhodamine fluorophore at 535 nm.
Experiments of iron(III) with other metal ions were investigated by means of the fluorescence response of RhHPA toward Fe^3+ in the presence of various other metal ions such as Na^+, K^+, Ca^2+, Mg^2+, Cr^3+, Hg^2+, Cu^2+, Pb^2+, Zn^2+, Fe^2+, Co^2+, Ni^2+, Cd^2+, and Ag^+. […] for Fe^3+ had no changes with addition of other metal ions. Cu(II) and Zn(II) increased the fluorescence intensity slightly.

Where [3] appears, read: Rh-PK + Fe^3+, ACN/Tris-HCl buffer pH 7.3 v/v 3:1.

For the compound `CCNc1cc2c(cc1C)C1(c3cc(C)c(NCC)cc3O2)c2ccccc2C(=O)N1/N=C/C=C/c1ccc(N(C)C)cc1` [Rh6GD, 2-(((1E,2E)-3-(4-(dimethylamino)phenyl)allylidene)amino)-3′,6′-bis(ethylamino)-2′,7′-dimethylspiro[isoindoline-1,9′-xanthen]-3-one], in data set [1] (10 μM Rh6GD), the “fluorescence of cells with sensor only” value is given as “weak fluorescence”. For the same compound, the “fluorescence of cells treated with Fe^2+ then Bpy” value in data set [1] (100 μM Fe^2+ overnight, Bpy, 10 μM Rh6GD, versus Fe^2+ supplement) is on record as “marked decrease in fluorescent intensity”. In addition, in data set [1] (100 μM ferrous ammonium sulfate overnight, then 10 μM Rh6GD 30 min), the “fluorescence of Fe^2+-treated cells versus unsupplemented” value is reported as “significant increase in fluorescent signals”. The “fluorescence of Bpy-treated cells” value in data set [1] (Bpy, then 10 μM Rh6GD, versus sensor only) is listed as “significantly decrease in fluorescence signal”.

On to `CCN(CC)c1ccc2c(c1)Oc1cc(N(CC)CC)ccc1C21c2ccccc2C(=O)N1CC/N=C(\C)c1cccc(C(C)=O)n1` [Rh-PK, (E)-2-(2-((1-(6-acetylpyridin-2-yl)ethylidene)amino)ethyl)-3′,6′-bis(diethylamino)spiro[isoindoline-1,9′-xanthen]-3-one], for which, in data set [2] (setting [3]), the Φ is given as 0.173 and the “ε of absorption peak at 555 nm” value turned out to be 3200 M⁻¹ cm⁻¹. In data set [2] (one equivalent Fe^3+, ACN/Tris-HCl buffer pH 7.3), the “increase in fluorescence emission intensity” value is ~12 fold and > 12 fold.
